≈ marks a conversion by molar mass, not a printed value.
Assays:
[1] = medium FaSSIF-Original; Söderlind; cited from earlier work
[2] = Solubility in canine FaSSIF (FaSSIF-canine)
[3] = physchem; conditions: fassif

Row | Compound | solubility in prior art FaSSIF-Original [1] | solubility [2] | solubility [3]
1 | CC(=O)N1CCN(c2ccc(OCC3COC(Cn4ccnc4)(c4ccc(Cl)cc4Cl)O3)cc2)CC1 (stereo not shown) [ketoconazole] | 26 µg/mL (≈ 48.9 µM) | 84.2 µg/mL (≈ 158 µM) | –
2 | OCCN(CCO)c1nc(N2CCCCC2)c2nc(N(CCO)CCO)nc(N3CCCCC3)c2n1 [dipyridamole] | 19 µg/mL (≈ 37.7 µM) | – | 75 µg/mL (≈ 149 µM)

Reference: patent US20150064794A1, “BIORELEVANT COMPOSITIONS” (PHARES PHARMACEUTICAL RESEARCH N.V., priority 2012, published 2015)
